Entries after “also recorded” stand apart in the source; their conditions may differ.
Assays:
Type in all cases: cell-based, human
[1] = test system: eIF2-alpha, RPS6, 4EBP1, eIF4E, eEF2; test: Immunoblot of translational regulators; details: MB135 myoblasts, 4-hour pulse of doxycycline
Procedure: (§1) Protein samples were harvested in RIPA buffer [150 mM NaCl, 1% NP-40, 0.5% Na-deocycholate, 1% SDS, 25 mM Tris-HCl pH7.4] supplemented with protease and phosphatase inhibitor tablets (Pierce), followed by sonication in Diagenode Bioruptor. Lysate was cleared by centrifugation at 16000×g and quantified using a Pierce BCA assay (Thermo Fisher Scientific). Samples were run on NuPAGE precast polyacrylamide gels (Invitrogen) and transferred to PVDF membrane. Membranes were blocked in PBS containing 0.1% Tween-20 and 5% non-fat dry milk before overnight incubation at 4° C. with primary antibodies (see resource table for a list of antibodies used in this study). Membranes were incubated with horseradish peroxidase-conjugated secondary antibodies for 1 hour at room temperature and SuperSignal chemiluminescent substrate (Thermo Scientific) was used for detection on film with a Mini-medical 90 processor. Membranes were stripped with Restore Western Blot Stripping Buffer (Pierce).

[2] = test system: translational efficiency (TE); test: Ribosome footprinting (Ribo-seq) paired with RNA-seq; details: DUX4 pulse+IFNG versus IFNG, 68 hours
Procedure: Ribo-seq was performed as described previously (Calviello et al., 2016) using two 70% confluent 15 cm plates of MB135iDUX4 myoblasts per treatment condition (n=3). MB135iDUX4 myoblasts were pulsed with or without doxycycline for 4 hours, incubated for 48 hours, supplemented with or without 50 ng/mL IFNG for 16 hours, and harvested at a terminal time point of 68 hours. To harvest, media was aspirated and each 15 cm plate of adherent cells was rinsed with 25 mL ice-cold PBS supplemented with 100 μg/mL cycloheximide (Sigma). After thorough removal of the PBS, plates were immersed in liquid nitrogen and placed on dry ice. Cells were lysed in mammalian polysome lysis buffer (20 mM Tris-HCl, pH 7.4, 150 mM NaCl, 5 mM MgCl2, 1 mM DTT, 100 μg/mL cycloheximide added fresh) supplemented with 1% Triton X-100 and 25 U/ml Turbo DNase (Ambion), transferred to wet ice, harvested by scraping and further lysed by trituration ten times through a 26-gauge needle. Lysates were cleared by centrifugation at 20,000×g for 10 min at 4° C., flash frozen in liquid nitrogen, and stored at −80° C. To isolate ribosome-protected RNA fragments, lysates were thawed, digested with 2.5 U/μL RNase I (Ambion) for 45 minutes at room temperature with gentle mixing, and treated with 0.65 U/μL SUPERaseIn RNase Inhibitor (Thermo Fisher Scientific) to stop nuclease activity. Ribosome complexes were isolated using MicroSpin S-400 HR Columns (GE Healthcare) and RNA extracted using the Direct-zol RNA Miniprep Kit (Zymo Research). The rRNA Removal Mix—Gold component of Illumina's TruSeq Stranded Total RNA Library Prep Gold kit was used to deplete rRNAs. Samples were precipitated using GlycoBlue Coprecipitant (Ambion) as carrier, 0.1 volume 3M sodium acetate and 3 volumes 100% Ethanol, incubated at −80° C. overnight, centrifuged for 45 minutes at 20,000×g at 4° C., and RNA pellet dissolved in nuclease-free ultrapure water. Ribosome-protected fragments were isolated by running samples on a 15% TBE-Urea gel with 10 bp DNA Ladder (Promega) and Marker-27nt and Marker-30nt (data not shown). […]

[3] = test system: RPL10A, RPL4, RPS6, RPS15A, MYOD1, DES; test: Immunoblot of ribosomal proteins and myogenic factors; details: DUX4 pulse+IFNG relative to IFNG
Procedure: as §1

DUX4: human DUX4 protein SEQ ID NO:3 expressed from doxycycline inducible codon altered transgene SEQ ID NO:2
status of translational regulators after a pulse of transgene [1]: sufficient to induce phosphorylation of eIF2-alpha; also recorded: brief reduction in phosphorylation of ribosomal protein S6 (RPS6); also recorded: prolonged dephosphorylation of 4EBP1 and a correlated loss of phosphorylated eukaryotic initiation factor 4E (eIF4E); also recorded: increased phosphorylation of eukaryotic elongation factor 2 (eEF2) on threonine 56; also recorded: enhanced phosphorylation of eEF2 at Thr56 and reduced phosphorylation of eIF4E at Ser209 | transcripts with significantly reduced TE at the 5′UTR [2]: 26.7% | transcripts with significantly reduced TE at the TSS [2]: 13.9% | transcripts with significantly reduced TE within the first exon [2]: 4.3% | protein levels of ribosomal proteins and myogenic factors [3]: RPL10A, RPL4, RPS6, and RPS15A are suppressed by DUX4; also recorded: both were suppressed at the protein level

Reference: US20250339531A1, “DUX4 POLYPEPTIDES AND NUCLEIC ACIDS FOR TREATING INFLAMMATORY AND AUTOIMMUNE CONDITIONS” (Fred Hutchinson Cancer Center, priority 2021, published 2025)
